Measurements reported in patent publication US20260226048A1, “MULTI-CYCLIC IRAK AND FLT3 INHIBITING COMPOUNDS AND USES THEREOF” (CHILDREN'S HOSPITAL MEDICAL CENTER, priority 2023, published 2026).

Experiments:
IRAK4 = biological target: T1, IRAK4 (Homo sapiens, UniProt Q9NWZ3); test: RBC HotSpot Kinase Assay, IRAK4; assay type: biochemical; design: purchased Reaction Biology (RBC HotSpot); details: isolated kinase enzyme, 33P-ATP, P81 filter-binding
T1 sequence (Q9NWZ3 1-460): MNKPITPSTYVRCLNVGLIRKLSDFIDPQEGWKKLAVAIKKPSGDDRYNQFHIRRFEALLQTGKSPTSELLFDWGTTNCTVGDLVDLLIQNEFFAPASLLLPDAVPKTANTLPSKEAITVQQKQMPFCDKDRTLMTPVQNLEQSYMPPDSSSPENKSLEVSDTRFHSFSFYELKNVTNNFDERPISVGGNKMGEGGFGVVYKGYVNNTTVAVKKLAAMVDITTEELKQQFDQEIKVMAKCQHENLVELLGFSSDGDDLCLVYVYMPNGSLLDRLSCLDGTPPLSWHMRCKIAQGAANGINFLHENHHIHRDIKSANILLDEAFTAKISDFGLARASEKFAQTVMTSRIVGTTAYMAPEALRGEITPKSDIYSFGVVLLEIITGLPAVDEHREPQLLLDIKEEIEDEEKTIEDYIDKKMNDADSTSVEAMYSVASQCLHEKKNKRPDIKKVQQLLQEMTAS
Method in brief: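 Radiometric filter-binding activity assay with isolated recombinant kinase (construct may be truncated or catalytic domain only) in 20 mM Hepes pH 7.5, 10 mM MgCl2, 1 mM EGTA, 2 mM DTT, 1% DMSO. Compound preincubated 20 min with kinase/substrate; reaction started with 33P-ATP, run 2 h at room temperature.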

[1] = tested on: MOLM14-D835Y cells (FLT3-ITD (D835Y) mutant); test: Combination drug screening with venetoclax in MOLM14 (D835Y) cells (Cell Titre Glo, 10 × 10); assay type: cell-based; design: Excess HSA (sum excess HSA score, combination with venetoclax): scale not given here; details: for Excess HSA (sum excess HSA score, combination with venetoclax): 10 × 10 dataset, Cell Titre Glo at 48 hours, optimal of 4 dose combinations, negative = synergy; for Concentration of a compound of the disclosure, or gilteritinib, needed to decrease the 62.5 nM Ven response to <10% in MOLM14(D835Y) cells: combination with 62.5 nM Venetoclax, Cell Titer Glo, 48 hours, response <10%
Description: (§1) These assays were performed using the Cell Titre Glo assay, measured at 48 hours.
(§2) A smaller concentration indicates higher potency to synergize with Venetoclax.

THP1 cells (FLT3 WT) = test: Combination drug screening with venetoclax in THP1 cells (Cell Titre Glo, 10 × 10); assay type: cell-based; details: for Excess HSA (sum excess HSA score, combination with venetoclax): 10 × 10 dataset, Cell Titre Glo at 48 hours, optimal of 4 dose combinations, negative = synergy; for Concentration needed to decrease the 312.5 nM Venetoclax response to <20%: Cell Titer Glo at 48 hours
Description: as §1, §2

MOLM14 F691L cells = test: MOLM14 F691L cell viability assay (Cell Titer Glo); assay type: cell-based; details: Homo sapiens, MOLM-14; cell viability, Cell Titer Glo, 48 hours; read-out: MOLM14 F691L IC50
Method in brief: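 Luminescent ATP read-out (CellTiter-Glo, 15 min room temperature) taken 48 h after compound addition. Cells were MOLM14 carrying FLT3 D835Y or F691L mutations, plated at 1000 cells per well.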

With `CC(O)(c1ccc2ncc(-c3ccnc(N[C@@H]4CCCNC4)n3)n2c1)C(F)(F)F` (single isomer, unassigned) [Compound 22a] the IC50 (IRAK4) was 3 nM.

With `CC(O)(c1ccc2ncc(-c3ccnc(N[C@@H]4CCCNC4)n3)n2c1)C(F)(F)F` (single isomer, unassigned) [Compound 23a] the IC50 (IRAK4) was 0.8 nM.

With `CC(O)(c1ccc2ncc(-c3ccnc(N[C@H]4CNCC[C@@H]4F)n3)n2c1)C(F)(F)F` (single isomer, unassigned) [Compound 25a] the “Excess HSA (sum excess HSA score, combination with venetoclax)” value (shortened to “Excess HSA”) [1] was −1507, the “Concentration of a compound of the disclosure, or gilteritinib, needed to decrease the 62.5 nM Ven response to <10% in MOLM14(D835Y) cells” value [1] was 25 nM and the “Excess HSA” value (THP1 cells (FLT3 WT)) was −1386. The “Concentration needed to decrease the 312.5 nM Venetoclax response to <20%” value (THP1 cells (FLT3 WT)) was 1.25 µM and the IC50 (IRAK4) was 2 nM.

With `CC(O)(c1ccc2ncc(-c3cncc(N[C@@H]4CCCNC4)n3)n2c1)C(F)(F)F` (single isomer, unassigned) [Compound 28a] the IC50 (IRAK4) was 3 nM.

In the case of `CC(O)(c1ccc2ncc(-c3cncc(N[C@H]4CNCC[C@@H]4F)n3)n2c1)C(F)(F)F` (single isomer, unassigned) [Compound 31a], the IC50 (IRAK4) is reported as 2 nM.

With `COc1cc2ncc(-c3nc(N[C@H]4CNCC[C@@H]4F)ncc3F)n2nc1C1CC1` [Compound 1a, 4-(6-cyclopropyl-7-methoxyimidazo[1,2-b]pyridazin-3-yl)-5-fluoro-N-((3S,4S)-4-fluoropiperidin-3-yl)pyrimidin-2-amine] the IC50 (MOLM14 F691L cells) was 6 nM, the “Excess HSA” value [1] was −1505 and the “Concentration of a compound of the disclosure, or gilteritinib, needed to decrease the 62.5 nM Ven response to <10% in MOLM14(D835Y) cells” value [1] was 1.6 nM. For the same molecule, the “Excess HSA” value (THP1 cells (FLT3 WT)) was −696.6, the “Concentration needed to decrease the 312.5 nM Venetoclax response to <20%” value (THP1 cells (FLT3 WT)) was 2.5 µM and the IC50 (IRAK4) was 0.9 nM.

`FC(F)COc1cc2ncc(-c3ccnc(N[C@H]4CNCC[C@@H]4F)n3)n2nc1C1CC1` [Compound 4a, 4-(6-cyclopropyl-7-(2,2-difluoroethoxy)imidazo[1,2-b]pyridazin-3-yl)-N-((3 S,4S)-4-fluoropiperidin-3-yl)pyrimidin-2-amine] was tested, and the IC50 (MOLM14 F691L cells) was 36 nM, the “Excess HSA” value [1] was −1769 and the “Concentration of a compound of the disclosure, or gilteritinib, needed to decrease the 62.5 nM Ven response to <10% in MOLM14(D835Y) cells” value [1] was 6.3 nM. The “Excess HSA” value (THP1 cells (FLT3 WT)) was −2433, the “Concentration needed to decrease the 312.5 nM Venetoclax response to <20%” value (THP1 cells (FLT3 WT)) was 2.5 µM and the IC50 (IRAK4) was 1 nM.

With `F[C@H]1CCNC[C@@H]1Nc1nccc(-c2cnc3cc(OC4CC4)c(C4CC4)nn23)n1` [Compound 12a, 4-(7-cyclopropoxy-6-cyclopropylimidazo[1,2-b]pyridazin-3-yl)-N-((3S,4S)-4-fluoropiperidin-3-yl)pyrimidin-2-amine] the IC50 (MOLM14 F691L cells) was 101 nM, the “Excess HSA” value [1] was −1236 and the “Concentration of a compound of the disclosure, or gilteritinib, needed to decrease the 62.5 nM Ven response to <10% in MOLM14(D835Y) cells” value [1] was 100 nM. For the same molecule, the “Excess HSA” value (THP1 cells (FLT3 WT)) was −1770.6140, the “Concentration needed to decrease the 312.5 nM Venetoclax response to <20%” value (THP1 cells (FLT3 WT)) was 5 µM and the IC50 (IRAK4) was 6 nM.

For `COc1cc2ncc(-c3nc(N[C@H]4CNCC[C@@H]4F)ncc3F)n2nc1C(C)(C)O` [Compound 45a, 2-(3-(5-fluoro-2-(((3S,4S)-4-fluoropiperidin-3-yl)amino)pyrimidin-4-yl)-7-methoxyimidazo[1,2-b]pyridazin-6-yl)propan-2-ol], the IC50 (MOLM14 F691L cells) was 90 nM, the “Excess HSA” value [1] was −2340 and the “Concentration of a compound of the disclosure, or gilteritinib, needed to decrease the 62.5 nM Ven response to <10% in MOLM14(D835Y) cells” value [1] was 25 nM. For the same molecule, the “Excess HSA” value (THP1 cells (FLT3 WT)) was −1158, the “Concentration needed to decrease the 312.5 nM Venetoclax response to <20%” value (THP1 cells (FLT3 WT)) was 10 µM and the IC50 (IRAK4) was 8 nM.

In the case of `CC(C)(O)c1ccc2ncc(-c3nc(N[C@H]4CNCC[C@@H]4F)ncc3F)n2c1` [Compound 46a, 2-(3-(5-fluoro-2-(((3S,4S)-4-fluoropiperidin-3-yl)amino)pyrimidin-4-yl)imidazo[1,2-a]pyridin-6-yl)propan-2-ol], the IC50 (MOLM14 F691L cells) is reported as 252 nM, the “Excess HSA” value [1] is reported as −1279 and the “Concentration of a compound of the disclosure, or gilteritinib, needed to decrease the 62.5 nM Ven response to <10% in MOLM14(D835Y) cells” value [1] is reported as 50 nM. For the same molecule, the “Excess HSA” value (THP1 cells (FLT3 WT)) was −774, the “Concentration needed to decrease the 312.5 nM Venetoclax response to <20%” value (THP1 cells (FLT3 WT)) was 2.5 µM and the IC50 (IRAK4) was 2 nM.

For `CC(C)(O)c1ccc2ncc(-c3nc(N[C@@H]4CCCNC4)ncc3F)n2c1` [Compound 48a, (R)-2-(3-(5-fluoro-2-(piperidin-3-ylamino)pyrimidin-4-yl)imidazo[1,2-a]pyridin-6-yl)propan-2-ol], the “Excess HSA” value [1] was −1694, the “Concentration of a compound of the disclosure, or gilteritinib, needed to decrease the 62.5 nM Ven response to <10% in MOLM14(D835Y) cells” value [1] was 156.3 nM and the “Excess HSA” value (THP1 cells (FLT3 WT)) was −759.8. The “Concentration needed to decrease the 312.5 nM Venetoclax response to <20%” value (THP1 cells (FLT3 WT)) was 2.5 µM and the IC50 (IRAK4) was 5 nM.

For `COc1cc2ncc(-c3nc(N[C@H]4CNCC[C@@H]4F)ncc3F)n2nc1C1CC(F)(F)C1` [Compound 49a, 4-(6-(3,3-difluorocyclobutyl)-7-methoxyimidazo[1,2-b]pyridazin-3-yl)-5-fluoro-N-((3S,4S)-4-fluoropiperidin-3-yl)pyrimidin-2-amine], the “Excess HSA” value [1] was −1960, the “Concentration of a compound of the disclosure, or gilteritinib, needed to decrease the 62.5 nM Ven response to <10% in MOLM14(D835Y) cells” value [1] was 6.3 nM and the “Excess HSA” value (THP1 cells (FLT3 WT)) was −1767. For the same molecule, the “Concentration needed to decrease the 312.5 nM Venetoclax response to <20%” value (THP1 cells (FLT3 WT)) was 10 µM and the IC50 (IRAK4) was 0.5 nM.

With `COc1cc2ncc(-c3nc(N[C@@H]4CCCNC4)ncc3F)n2nc1C1CC2(CCC2)C1` [Compound 59a, (R)-5-fluoro-4-(7-methoxy-6-(spiro[3.3]heptan-2-yl)imidazo[1,2-b]pyridazin-3-yl)-N-(piperidin-3-yl)pyrimidin-2-amine] the IC50 (MOLM14 F691L cells) was 45 nM, the “Excess HSA” value [1] was −1911 and the “Concentration of a compound of the disclosure, or gilteritinib, needed to decrease the 62.5 nM Ven response to <10% in MOLM14(D835Y) cells” value [1] was 12.5 nM. The “Excess HSA” value (THP1 cells (FLT3 WT)) was −914.4, the “Concentration needed to decrease the 312.5 nM Venetoclax response to <20%” value (THP1 cells (FLT3 WT)) was 5 µM and the IC50 (IRAK4) was 3 nM.

`COc1cc2ncc(-c3nc(N[C@H]4CNCC[C@@H]4F)ncc3F)n2nc1C1CC2(CCC2)C1` [Compound 60a, 5-fluoro-N-((3S,4S)-4-fluoropiperidin-3-yl)-4-(7-methoxy-6-(spiro[3.3]heptan-2-yl)imidazo[1,2-b]pyridazin-3-yl)pyrimidin-2-amine] was tested, and the IC50 (MOLM14 F691L cells) was 90 nM, the “Excess HSA” value [1] was −1497.3117 and the “Concentration of a compound of the disclosure, or gilteritinib, needed to decrease the 62.5 nM Ven response to <10% in MOLM14(D835Y) cells” value [1] was 25 nM. The “Excess HSA” value (THP1 cells (FLT3 WT)) was −1548, the “Concentration needed to decrease the 312.5 nM Venetoclax response to <20%” value (THP1 cells (FLT3 WT)) was 5 µM and the IC50 (IRAK4) was 8 nM.

`COc1cc2ncc(-c3ccnc(N[C@H]4CNCC[C@@H]4F)n3)n2nc1C1CCC1` [Compound 79a, 4-(6-cyclobutyl-7-methoxyimidazo[1,2-b]pyridazin-3-yl)-N-((3S,4S)-4-fluoropiperidin-3-yl)pyrimidin-2-amine] was tested, and the IC50 (MOLM14 F691L cells) was 101 nM, the “Excess HSA” value [1] was −1180 and the “Concentration of a compound of the disclosure, or gilteritinib, needed to decrease the 62.5 nM Ven response to <10% in MOLM14(D835Y) cells” value [1] was 25 nM. For the same molecule, the “Excess HSA” value (THP1 cells (FLT3 WT)) was −994.9, the “Concentration needed to decrease the 312.5 nM Venetoclax response to <20%” value (THP1 cells (FLT3 WT)) was 5 µM and the IC50 (IRAK4) was 2 nM.

In the case of `COc1cc2ncc(-c3nc(N[C@H]4CNCC[C@@H]4F)ncc3F)n2nc1C1COC1` [Compound 92a, 5-fluoro-N-((3S,4S)-4-fluoropiperidin-3-yl)-4-(7-methoxy-6-(oxetan-3-yl)imidazo[1,2-b]pyridazin-3-yl)pyrimidin-2-amine], the IC50 (MOLM14 F691L cells) is reported as 40 nM, the “Concentration of a compound of the disclosure, or gilteritinib, needed to decrease the 62.5 nM Ven response to <10% in MOLM14(D835Y) cells” value [1] is reported as 12.5 nM and the “Excess HSA” value (THP1 cells (FLT3 WT)) is reported as −529.2. The “Concentration needed to decrease the 312.5 nM Venetoclax response to <20%” value (THP1 cells (FLT3 WT)) was 5 µM and the IC50 (IRAK4) was < 0.5 nM.

`COc1cc2ncc(-c3nc(N[C@H]4CNC[C@@H]4F)ncc3F)n2nc1N1CCCS1(=O)=O` [Compound 111a, 2-(3-(5-fluoro-2-(((3S,4S)-4-fluoropyrrolidin-3-yl)amino)pyrimidin-4-yl)-7-methoxyimidazo[1,2-b]pyridazin-6-yl)isothiazolidine 1,1-dioxide] gave an IC50 (MOLM14 F691L cells) of 113 nM and an IC50 (IRAK4) of 3 nM.

`COc1cc2ncc(-c3nc(N[C@H]4CNCC[C@@H]4F)ncc3F)n2nc1N1CCCS1(=O)=O` [Compound 112a, 2-(3-(5-fluoro-2-(((3S,4S)-4-fluoropiperidin-3-yl)amino)pyrimidin-4-yl)-7-methoxyimidazo[1,2-b]pyridazin-6-yl)isothiazolidine 1,1-dioxide] gave an IC50 (MOLM14 F691L cells) of 23 nM and an IC50 (IRAK4) of 3 nM.
